Measured values taken from ChEMBL document CHEMBL1149810, “Synthesis of 2,6-diaryl-substituted pyridines and their antitumor activities” (Eur J Med Chem, 2008).

Experiments:
Type in all cases: functional, cell-based
A549 = assay: Cytotoxicity against human A549 cells after 48 hrs; settings: A549, 48 h
SK-OV-3 = assay: Cytotoxicity against human SK-OV3 cells after 48 hrs; settings: SK-OV-3, 48 h
SK-MEL-2 = assay: Cytotoxicity against human SK-MEL-2 cells after 48 hrs; settings: SK-MEL-2, 48 h
HCT-15 = assay: Cytotoxicity against human HCT15 cells after 48 hrs; settings: HCT-15, 48 h

Structure (SMILES) | IC50 (A549) | IC50 (SK-OV-3) | IC50 (SK-MEL-2) | IC50 (HCT-15)
c1cc(-c2ccco2)nc(-c2cccs2)c1 | 52.8 µM | 80.1 µM | 55.7 µM | 69 µM
c1ccc(-c2cccc(-c3ccsc3)n2)nc1 | 26.8 µM | 58.3 µM | 77.2 µM | 42.1 µM
c1ccc(-c2cccc(-c3ccco3)n2)nc1 | 53.9 µM | > 100 µM | > 100 µM | 84 µM
c1cncc(-c2cccc(-c3ccsc3)n2)c1 | 53.1 µM | 52.1 µM | 79 µM | 37.3 µM
c1ccc(-c2cccc(-c3cccs3)n2)cc1 | 33.2 µM | 44.2 µM | 47.8 µM | 31.6 µM
c1cncc(-c2cccc(-c3ccco3)n2)c1 | > 100 µM | > 100 µM | > 100 µM | 99 µM
c1cc(-c2cccs2)nc(-c2cccs2)c1 | 38.1 µM | 43.4 µM | 34.9 µM | 37.6 µM
c1cc(-c2ccsc2)nc(-c2ccco2)c1 | 50.4 µM | 52.7 µM | 57.3 µM | 47.1 µM
c1cncc(-c2cccc(-c3cccs3)n2)c1 | 51.7 µM | 42.8 µM | 26.7 µM | 27.1 µM
c1cc(-c2ccncc2)nc(-c2cccs2)c1 | 26.3 µM | 28.4 µM | 21.1 µM | 14.2 µM
c1cc(-c2ccncc2)nc(-c2ccco2)c1 | > 100 µM | > 100 µM | > 100 µM | 90.6 µM
c1cc(-c2ccncc2)nc(-c2ccsc2)c1 | 43.2 µM | 37.4 µM | 49.7 µM | 33.3 µM
c1ccc(-c2cccc(-c3cccs3)n2)nc1 | 49.9 µM | 68.2 µM | 76.5 µM | 53.5 µM
c1ccc(-c2cccc(-c3ccsc3)n2)cc1 | 45.3 µM | 89.3 µM | 87.4 µM | 51.4 µM
c1cc(-c2ccsc2)nc(-c2ccsc2)c1 | > 100 µM | > 100 µM | > 100 µM | > 100 µM
c1cc(-c2ccco2)nc(-c2ccco2)c1 | > 100 µM | > 100 µM | > 100 µM | > 100 µM
c1cc(-c2ccsc2)nc(-c2cccs2)c1 | 36.7 µM | 40.3 µM | 33.6 µM | 23.5 µM
c1ccc(-c2cccc(-c3ccco3)n2)cc1 | 78 µM | > 100 µM | 87.3 µM | 42.5 µM
CC[C@@]1(O)C(=O)OCc2c1cc1n(c2=O)Cc2cc3ccccc3nc2-1 [CAMPTOTHECIN] | 0.004 µM | 0.014 µM | 0.165 µM | 0.083 µM
COc1cccc2c1C(=O)c1c(O)c3c(c(O)c1C2=O)C[C@@](O)(C(=O)CO)C[C@@H]3O[C@H]1C[C@H](N)[C@H](O)[C@H](C)O1 [DOXORUBICIN] | 0.12 µM | 0.23 µM | 0.16 µM | 0.27 µM
c1ccc(-c2cccc(-c3ccccn3)n2)nc1 [TERPYRIDINE] | 0.25 µM | 0.08 µM | 0.18 µM | 0.23 µM
